Patent US11279728B2, “Broad spectrum viral inhibitor” (Albert Einstein College of Medicine, priority 2017, dated 2022)
Entries after “also recorded” stand apart in the source; their conditions may differ.

B1: Rattus norvegicus (residues 51-361) viperin (Rvip) (Rattus norvegicus) (protein)
chain: GEPKETQETHEDPGSAQPTTPVSVNYHFTRQCNYKCGFCFHTAKTSFVLPLEEAKRGLLLLKQAGMEKINFSGGEPFLQDRGEYLGKLVRFCKEELALPSVSIVSNGSLIRERWFKDYGDYLDILAISCDSFDEQVNVLIGRGQGKKNHVENLQKLRKWCRDYKVAFKINSVINRFNVDEDMNEHIKALSPVRWKVFQCLLIEGENSGEDALREAERFLISNEEFEAFLQRHKDVSCLVPESNQKMKDSYLILDEYMRFLNCTGGRKDPSRSILDVGVEEAIKFSGFDEKMFLKRGGKYVWSKADLKLDW

Assays:
Dengue virus (DV) RdRp = Dengue virus (DV) RdRp (Dengue virus type 2, UniProt P29990); assay: DV RdRp primed-template (primer extension) assay; assay type: biochemical; conditions: for incorporation by DV RdRp on addition to the extended primer: direct incorporation, primed-template assay; for inhibition of DV RdRp-catalyzed production of full-length RNA: in competition with natural ribonucleotides, increasing concentrations (1, 10, 100 and 300 μM); for chain termination of DV RdRp-catalyzed RNA synthesis: once incorporated, only a 16-nt product (n+1)
Description: FIG. 6(A)-6(B): DV RdRp-catalyzed RNA synthesis is inhibited by ddhCTP by a chain termination mechanism. A. Schematic of primer extension assay for evaluating DV RdRp activity. Elongation complexes are first assembled with a trinucleotide primer, 5′-pGGC (SEQ ID NO:1), and 20-nt RNA template (SEQ ID NO:2) in the presence of ATP and GTP to elongate the trinucleotide primer (extended primer; SEQ ID NO:3)) and position the enzyme on the template (SEQ ID NO:2) such that guanosine is in the first templating position (underlined). In the presence of CTP and UTP, DV RdRp catalyzes RNA synthesis to the end of the template (SEQ ID NO:5). […] B. Increasing concentrations of ddhCTP (1, 10, 100 and 300 μM) inhibits DV RdRp-catalyzed RNA synthesis. Reaction products resolved by denaturing PAGE from DV RdRp-catalyzed nucleoside incorporation in the presence of increasing concentrations of either ddhCTP or 3′-dCTP. In the absence of ddhCTP and 3′-dCTP, DV RdRp efficiently catalyzes RNA synthesis to the end of the template creating a 20-nt RNA product (n+5, lanes 2 and 8).
Molecular target for ddhCTP: Viperin is induced by both DNA and RNA viruses (8,44-51). However, the presence of a 2′-OH on ddhCTP should almost certainly preclude efficient utilization by DNA polymerases, viral or cellular. (52) In contrast, 3′-deoxyribonucleotides are well known inhibitors of viral RNA-dependent RNA polymerases (RdRps)(53). Because Dengue virus (DV) and other members of the Flavivirus family are known to be sensitive to viperin, we used the DV RdRp as our model to examine the effect of ddhCTP on RdRp activity. First, it was asked if ddhCTP is a substrate for DV RdRp. To do so, a previously described primed-template assay was used. (54) A trinucleotide is used to prime RNA synthesis in the presence of two ^32P-labeled rNTPs, producing a 15-nt product that is referred to here as the extended primer. […] Addition of UTP to the CMP-incorporated RNA led to further extension to the end of template. […] A more stringent test of chain terminator effectiveness is whether it can directly compete with natural ribonucleotides. […] The reduced efficacy of ddhCTP must be caused by the double bond between the 3′ and 4′ positions, and the corresponding impact on the detailed ribose conformation, as this is the only difference between ddhCTP and 3′-dCTP. The phylogeny of viral RdRp genes classifies these enzymes into three supergroups (55), with Flaviviral RdRps belonging to supergroup II. To determine if the observations with DV RdRp extend to other supergroups, we evaluated a member of supergroup I. Specifically, the RdRp from human rhinovirus type C (HRV-C) was used, a member of the Picornavirus family. […] However, in the presence of other rNTPs, HRV-C RdRp was not inhibited by ddhCTP, even though it was inhibited by 3′-dCTP.
Addition of UTP to the CMP-incorporated RNA, as expected, led to further extension to the end of template.

Zika virus (ZIKV) RdRp = Zika virus (ZIKV) RdRp (Zika virus, UniProt Q32ZE1); assay: ZIKV RdRp inhibition by ddhCTP; assay type: biochemical
[1] = system: RdRp from human rhinovirus type C (HRV-C); assay: HRV-C RdRp incorporation and inhibition; assay type: biochemical; conditions: for utilization by HRV-C RdRp: direct-incorporation experiments; for inhibition of HRV-C RdRp: in the presence of other rNTPs
poliovirus (PV) RdRp = poliovirus (PV) RdRp (Poliovirus type 1, UniProt P03300); assay type: biochemical
HCV RdRp = HCV RdRp (Hepatitis C virus genotype 1a, UniProt P27958); assay: HCV RdRp inhibition by ddhCTP
[2] = molecular target: T1, Rattus norvegicus (residues 51-361) viperin (Rvip) (Rattus norvegicus, UniProt O70600); assay: In vitro characterization of viperin (Rvip) activity: 5′dA formation / ddhCTP production; conditions: 50 μM Rvip, 2 mM SAM, 1 mM nucleotide, 5 mM dithionite, 4 min
T1 sequence (O70600 51-360 limits assumed): B1 chain

Vero cells = assay: Vero cell viability (ddhC cytotoxicity); assay type: cell-based; conditions: incubation with 1 mM ddhC
[3] = system: ZIKV (MR766, PRVABC59, R103451); assay: ZIKV replication and release from Vero cells
[4] = substrate: Nc1ccn([C@@H]2O[C@H](COP(=O)(O)OP(=O)(O)OP(=O)(O)O)[C@@H](O)[C@H]2O)c(=O)n1; assay: purified protein, by the assay type; conditions: other: CTP as substrate of Rvip, 37.0 °C

Dengue virus (DV) RdRp, sequence (P29990 2492-3391 limits assumed): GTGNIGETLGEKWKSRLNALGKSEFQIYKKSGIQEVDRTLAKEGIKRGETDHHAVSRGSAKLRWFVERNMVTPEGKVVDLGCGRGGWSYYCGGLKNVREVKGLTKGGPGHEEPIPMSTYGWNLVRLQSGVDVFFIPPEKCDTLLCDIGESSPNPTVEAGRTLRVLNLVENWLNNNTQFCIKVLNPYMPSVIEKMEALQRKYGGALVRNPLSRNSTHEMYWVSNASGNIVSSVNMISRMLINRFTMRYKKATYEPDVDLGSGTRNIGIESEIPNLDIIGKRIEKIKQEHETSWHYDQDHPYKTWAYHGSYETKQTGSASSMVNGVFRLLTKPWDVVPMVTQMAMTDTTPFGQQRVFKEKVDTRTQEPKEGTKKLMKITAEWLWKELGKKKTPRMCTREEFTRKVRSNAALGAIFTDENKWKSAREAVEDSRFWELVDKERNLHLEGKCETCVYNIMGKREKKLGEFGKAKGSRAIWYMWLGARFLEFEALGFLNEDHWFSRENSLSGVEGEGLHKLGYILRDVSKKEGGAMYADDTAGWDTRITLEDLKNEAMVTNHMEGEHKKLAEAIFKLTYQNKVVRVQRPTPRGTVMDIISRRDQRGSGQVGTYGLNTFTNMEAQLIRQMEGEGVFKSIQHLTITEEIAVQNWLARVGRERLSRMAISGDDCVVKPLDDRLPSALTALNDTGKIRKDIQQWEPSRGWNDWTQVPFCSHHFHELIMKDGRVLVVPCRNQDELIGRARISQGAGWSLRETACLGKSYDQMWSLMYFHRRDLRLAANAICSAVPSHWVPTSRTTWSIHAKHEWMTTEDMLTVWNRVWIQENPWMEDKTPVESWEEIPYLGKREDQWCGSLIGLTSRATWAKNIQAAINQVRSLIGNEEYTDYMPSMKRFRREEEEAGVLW
poliovirus (PV) RdRp, sequence (P03300 1749-2209 limits assumed): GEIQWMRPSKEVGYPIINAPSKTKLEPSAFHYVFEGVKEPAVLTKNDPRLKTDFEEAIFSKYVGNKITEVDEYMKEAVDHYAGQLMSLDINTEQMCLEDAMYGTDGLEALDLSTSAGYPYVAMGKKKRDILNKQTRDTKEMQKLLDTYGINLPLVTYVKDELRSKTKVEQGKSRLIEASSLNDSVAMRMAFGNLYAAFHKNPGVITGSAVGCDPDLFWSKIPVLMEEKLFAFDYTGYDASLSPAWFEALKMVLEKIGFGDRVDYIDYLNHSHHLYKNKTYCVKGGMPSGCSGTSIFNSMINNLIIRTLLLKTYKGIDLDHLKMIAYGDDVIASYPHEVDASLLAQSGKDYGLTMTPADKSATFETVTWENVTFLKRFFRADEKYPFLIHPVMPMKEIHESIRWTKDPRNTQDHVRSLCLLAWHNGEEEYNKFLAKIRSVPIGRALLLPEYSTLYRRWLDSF
HCV RdRp, sequence (P27958 2421-3011): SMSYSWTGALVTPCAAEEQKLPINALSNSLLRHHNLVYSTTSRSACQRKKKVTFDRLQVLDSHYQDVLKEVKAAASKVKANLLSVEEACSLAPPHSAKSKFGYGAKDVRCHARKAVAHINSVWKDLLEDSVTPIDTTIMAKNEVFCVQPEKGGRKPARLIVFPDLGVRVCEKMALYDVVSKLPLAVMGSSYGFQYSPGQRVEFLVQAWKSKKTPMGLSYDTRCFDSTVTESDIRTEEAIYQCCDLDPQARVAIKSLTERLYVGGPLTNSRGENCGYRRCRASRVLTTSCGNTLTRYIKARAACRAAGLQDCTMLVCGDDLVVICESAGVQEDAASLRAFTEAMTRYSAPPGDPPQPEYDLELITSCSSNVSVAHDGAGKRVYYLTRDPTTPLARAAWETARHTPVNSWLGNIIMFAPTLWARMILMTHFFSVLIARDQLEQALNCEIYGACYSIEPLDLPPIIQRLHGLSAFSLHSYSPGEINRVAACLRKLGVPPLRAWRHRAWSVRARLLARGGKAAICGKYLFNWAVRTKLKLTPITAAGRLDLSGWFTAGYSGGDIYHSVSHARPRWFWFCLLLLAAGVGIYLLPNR
Zika virus (ZIKV) RdRp, sequence (Q32ZE1 2517-3419): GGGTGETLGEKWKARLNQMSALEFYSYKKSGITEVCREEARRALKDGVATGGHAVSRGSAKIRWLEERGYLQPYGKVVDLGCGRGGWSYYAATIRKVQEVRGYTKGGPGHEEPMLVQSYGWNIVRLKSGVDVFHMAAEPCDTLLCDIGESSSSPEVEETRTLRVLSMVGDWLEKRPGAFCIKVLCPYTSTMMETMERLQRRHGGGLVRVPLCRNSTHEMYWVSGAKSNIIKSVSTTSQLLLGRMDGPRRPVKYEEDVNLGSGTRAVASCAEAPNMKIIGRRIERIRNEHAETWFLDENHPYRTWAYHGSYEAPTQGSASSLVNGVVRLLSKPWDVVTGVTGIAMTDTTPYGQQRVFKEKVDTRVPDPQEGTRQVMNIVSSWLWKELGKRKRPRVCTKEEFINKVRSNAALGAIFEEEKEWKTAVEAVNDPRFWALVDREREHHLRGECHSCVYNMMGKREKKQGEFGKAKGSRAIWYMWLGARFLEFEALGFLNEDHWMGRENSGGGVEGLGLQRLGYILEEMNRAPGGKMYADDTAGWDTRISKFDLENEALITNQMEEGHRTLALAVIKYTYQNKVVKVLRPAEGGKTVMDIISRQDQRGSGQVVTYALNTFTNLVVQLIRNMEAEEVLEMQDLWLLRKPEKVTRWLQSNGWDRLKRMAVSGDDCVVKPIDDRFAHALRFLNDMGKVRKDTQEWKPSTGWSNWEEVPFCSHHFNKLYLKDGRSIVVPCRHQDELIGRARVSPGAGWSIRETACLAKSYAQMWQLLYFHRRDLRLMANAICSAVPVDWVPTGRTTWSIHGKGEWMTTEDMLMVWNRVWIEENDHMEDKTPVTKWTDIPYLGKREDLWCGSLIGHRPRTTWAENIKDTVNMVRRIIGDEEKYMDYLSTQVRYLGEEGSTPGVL

Molecule	incorporation by DV RdRp on addition to the extended primer (Dengue virus (DV) RdRp)	inhibition of DV RdRp-catalyzed production of full-length RNA (Dengue virus (DV) RdRp)	chain termination of DV RdRp-catalyzed RNA synthesis (Dengue virus (DV) RdRp)	utilization by HRV-C RdRp [1]	inhibition of HRV-C RdRp [1]	inhibition of PV RdRp (poliovirus (PV) RdRp)	further results
Nc1ccn([C@@H]2OC(COP(=O)(O)OP(=O)(O)OP(=O)(O)O)=C[C@@H]2O)c(=O)n1 (stereo in doubt) [ddhCTP, 3′-deoxy-3′,4′-didehydro-cytidine triphosphate]	led to incorporation	inhibits; also recorded: inhibited production of full-length RNA	terminate RNA synthesis	utilization	not inhibited; also recorded: poorly inhibited	poorly inhibited	inhibition by ddhCTP utilization and chain termination (Zika virus (ZIKV) RdRp): susceptible to inhibition; inhibition by ddhCTP utilization and chain termination (HCV RdRp): susceptible to inhibition
Nc1ccn([C@@H]2O[C@H](COP(=O)(O)OP(=O)(O)OP(=O)(O)O)C[C@H]2O)c(=O)n1 [3′-dCTP, reference compound]	led to incorporation	inhibited production of full-length RNA	terminate RNA synthesis	utilization	inhibited	inhibited	efficacy of inhibition of full-length RNA, 3′-dCTP compared with ddhCTP (Dengue virus (DV) RdRp; compare lane 10 to lane 4 in FIG. 6B): greater efficacy than ddhCTP
Nc1ccn([C@@H]2O[C@H](COP(=O)(O)OP(=O)(O)OP(=O)(O)O)[C@@H](O)[C@H]2O)c(=O)n1 [CTP, cytidine triphosphate]							activation of 5′dA production relative to protein alone [2]: 30 fold
Nc1ccn([C@@H]2OC(CO)=C[C@H]2O)c(=O)n1 [ddhC, 3′-deoxy-3′,4′-didehydro-cytidine]							Vero cell viability (Vero cells): did not alter Vero cell viability; reduction in virus titer ([3]; ZIKV MR766, MOI of 0.1, all time points, Vero cells): 50-200 fold; reduction in virus titer ([3]; ZIKV MR766, MOI of 1.0, Vero cells): 5-50 fold; sensitivity to ddhC treatment ([3]; ZIKV PRVABC59 (Puerto Rico), Vero cells): analogous sensitivities; sensitivity to ddhC treatment ([3]; ZIKV R103451 (Honduras), Vero cells): analogous sensitivities
B1							Km [4]: 183 ± 28 µM; kcat ([4]; b22 prints minutes-1): 0.00308 ± 0.00012 s⁻¹
